Assay results from ChEMBL document CHEMBL3217712, “Improved biodistribution, pharmacokinetics and photodynamic efficacy using a new photostable sulfonamide bacteriochlorin” (Medchemcomm, 2012).

Legend:
[1] = system: S91; test: Photodynamic efficacy against mouse Cloudman S91 cells allografted in DBA mouse assessed as time of tumor growth delay at 2 mg/kg, iv followed by irradiated with 70 mW cm'-2 diode laser light for 25 mins; assay type: functional
[2] = n-Octanol-water partition coefficient, log P of the compound; assay type: physicochemical

SMILES	Time [1]	logP [2]
O=S(=O)(O)c1ccc(Cl)c(-c2c3nc(c(-c4cc(S(=O)(=O)O)ccc4Cl)c4ccc([nH]4)c(-c4cc(S(=O)(=O)O)ccc4Cl)c4nc(c(-c5cc(S(=O)(=O)O)ccc5Cl)c5ccc2[nH]5)CC4)C=C3)c1	29 days	–
O=S(=O)(O)c1ccc(Cl)c(-c2c3nc(c(-c4cc(S(=O)(=O)O)ccc4Cl)c4ccc([nH]4)c(-c4cc(S(=O)(=O)O)ccc4Cl)c4nc(c(-c5cc(S(=O)(=O)O)ccc5Cl)c5ccc2[nH]5)CC4)CC3)c1	27 days	-1.7
